Converted amounts (≈) assume the structure as drawn. Read-outs that look alike come from different tables or passages of the source.
Test system: strain Pyt^T
Assay: Antibiotic resistance by the Etest method (MIC)
Format: cell-based, Akkermansia glycaniphilus
Settings: for MIC: read-out: Minimal Inhibitory Concentration (MIC); for Level of resistance / sensitivity of strain Pyt^T to the antibiotic: EUCAST breakpoint table for Gram-negative anaerobes (Version 5.0)
Description: Antibiotic resistance was determined using the Etest method for both ampicillin and vancomycin (bioMérieux, Marcy l'Étoile, France). The minimal inhibitory concentration (MIC) was determined after 48 hours of incubation. In more detail, strain Pyt^T was grown in mucin media and after reaching stationary phase 100 ul was plated onto BHI plates supplemented with 0.5% (v/v) hog gastric mucin (Type III, Sigma), and 0.05% (w/v) of cysteine-HCL (Sigma-ALdrich). Plates were incubated for 24-48 hours under strictly anaerobic conditions. The level of resistance was determined using the European Committee on Antimicrobial Susceptibility Testing (EUCAST) breakpoint table for interpretation of MICs for Gram-negative anaerobes (Version 5.0, valid from 2015-01-01).

Compound | MIC (Etest, BHI plates with 0.5% hog gastric mucin and 0.05% cysteine-HCl, strictly anaerobic, read after 48 hours) [µg/mL] | Level of resistance / sensitivity of strain Pyt^T to the antibiotic (Etest) | MIC (48 h) [µg/mL]
CC1(C)S[C@@H]2[C@H](NC(=O)[C@H](N)c3ccccc3)C(=O)N2[C@H]1C(=O)O [ampicillin] | 32 (≈ 91.6 µM) | relatively resistant | –
O=C(N[C@H](CO)[C@H](O)c1ccc([N+](=O)[O-])cc1)C(Cl)Cl [chloramphenicol] | – | sensitive | –
Cc1ncc([N+](=O)[O-])n1CCO [metronidazole] | – | sensitive | –
CN[C@H](CC(C)C)C(=O)N[C@H]1C(=O)N[C@@H](CC(N)=O)C(=O)N[C@H]2C(=O)N[C@H]3C(=O)N[C@H](C(=O)N[C@H](C(=O)O)c4cc(O)cc(O)c4-c4cc3ccc4O)[C@H](O)c3ccc(c(Cl)c3)Oc3cc2cc(c3O[C@@H]2O[C@H](CO)[C@@H](O)[C@H](O)[C@H]2O[C@H]2C[C@](C)(N)[C@H](O)[C@H](C)O2)Oc2ccc(cc2Cl)[C@H]1O [vancomycin] | – | relatively resistant | 24 (≈ 16.6 µM)
cholistin | – | sensitive | –

From patent publication US11202807B2, “Bacterial species” (WAGENINGEN UNIVERSITEIT, priority 2016, dated 2021)
